According to article PMC6440464 (PeerJ, 2019):
Several values for one entry are separate records, joined by “and”; a condition that tells them apart may be missing. Equal values may be shown once.

Assay: Stability of the analytes in rat plasma QC samples at different storage conditions
Type: in vitro ADME
Settings: for Post-preparation stability (4℃ for 24 h) Measured Conc.: extracted plasma samples in auto sampler rack; for Post-preparation stability (4℃ for 24 h) Measured Conc. / Free-thaw stability (3 free-thaw cycles) Measured Conc. / Long-term stability (-80℃ for 15 d) Measured Conc. / Short-term stability (25℃ for 12 h) Measured Conc.: n=5; for Free-thaw stability, Test Conc., AV / Free-thaw stability, Test Conc. / Post-preparation stability, Test Conc., AV / Post-preparation stability, Test Conc. / Short-term stability, Test Conc., AV / Short-term stability, Test Conc. / Long-term stability, Test Conc., AV / Long-term stability, Test Conc.: plasma; for Free-thaw stability, Test Conc., AV / Free-thaw stability, Test Conc.: 3 free-thaw cycles; for Free-thaw stability, Test Conc., AV / Post-preparation stability, Test Conc., AV / Short-term stability, Test Conc., AV / Long-term stability, Test Conc., AV: AV of 5 replicates; for Free-thaw stability, Test Conc. / Post-preparation stability, Test Conc. / Short-term stability, Test Conc. / Long-term stability, Test Conc.: single replicates NO.1-NO.5, listed as Quercetin (Qr); for Post-preparation stability, Test Conc., AV / Post-preparation stability, Test Conc.: 4℃ for 24 h; for Short-term stability, Test Conc., AV / Short-term stability, Test Conc.: 25℃ for 12 h; for Long-term stability, Test Conc., AV / Long-term stability, Test Conc.: -80℃ for 15 d; for Free-thaw stability (3 free-thaw cycles) Measured Conc. / Long-term stability (-80℃ for 15 d) Measured Conc. / Short-term stability (25℃ for 12 h) Measured Conc.: rat plasma
Protocol: The stabilities of Qr, IQ, and QG in plasma were assessed by analyzing QC samples at different storage conditions. The stabilities of three flavonoids in plasma were studied by analyzing three concentration levels of QC samples (n = 5) at room temperature (25 °C) for 12 h, at long-term storage (−80 °C for 15 days), after three freeze (−80 °C) and thaw (room temperature) cycles, and at auto sampler rack storage (4 °C for 24 h).

[1] = high QC, nominal 8400.0 (Qr), 976.0 (IQ), 10000.0 (QG) ng/mL
[2] = low QC, nominal 65.6 (Qr), 48.8 (IQ), 100.0 (QG) ng/mL
[3] = medium QC, nominal 525.0 (Qr), 244.0 (IQ), 1000.0 (QG) ng/mL

SMILES: O=c1c(O)c(-c2ccc(O)c(O)c2)oc2cc(O)cc(O)c12 [Qr, Quercetin]
- Post-preparation stability (4℃ for 24 h) Measured Conc. [1]: 7642.7 ± 675.6 ng/mL
- Post-preparation stability (4℃ for 24 h) Measured Conc. [2]: 61.0 ± 4.5 ng/mL
- Post-preparation stability (4℃ for 24 h) Measured Conc.: 526.3 ± 60.5 ng/mL
- Free-thaw stability, Test Conc., AV (nominal Conc. 65.63 ng/mL): 65.26 ng/mL
- Free-thaw stability, Test Conc. (nominal Conc. 65.63 ng/mL): 66.42 ng/mL and 58.78 ng/mL and 57.77 ng/mL and 73.55 ng/mL and 69.78 ng/mL
- Free-thaw stability, Test Conc., AV (nominal Conc. 525.00 ng/mL): 511.91 ng/mL
- Free-thaw stability, Test Conc. (nominal Conc. 525.00 ng/mL): 492.92 ng/mL and 484.10 ng/mL and 471.66 ng/mL and 550.36 ng/mL and 560.49 ng/mL
- Free-thaw stability, Test Conc., AV (nominal Conc. 8400.00 ng/mL): 8631.34 ng/mL
- Free-thaw stability, Test Conc. (nominal Conc. 8400.00 ng/mL): 7999.32 ng/mL and 7943.88 ng/mL and 8238.72 ng/mL and 9682.68 ng/mL and 9292.08 ng/mL
- Post-preparation stability, Test Conc., AV (nominal Conc. 65.63 ng/mL): 61.04 ng/mL
- Post-preparation stability, Test Conc. (nominal Conc. 65.63 ng/mL): 58.85 ng/mL and 54.07 ng/mL and 64.70 ng/mL and 64.32 ng/mL and 63.25 ng/mL
- Post-preparation stability, Test Conc., AV (nominal Conc. 525.00 ng/mL): 526.26 ng/mL
- Post-preparation stability, Test Conc. (nominal Conc. 525.00 ng/mL): 568.94 ng/mL and 459.48 ng/mL and 463.10 ng/mL and 552.93 ng/mL and 586.85 ng/mL
- Post-preparation stability, Test Conc., AV (nominal Conc. 8400.00 ng/mL): 7642.66 ng/mL
- Post-preparation stability, Test Conc. (nominal Conc. 8400.00 ng/mL): 6882.12 ng/mL and 7943.04 ng/mL and 7529.76 ng/mL and 8629.32 ng/mL and 7229.04 ng/mL
- Short-term stability, Test Conc., AV (nominal Conc. 65.63 ng/mL): 60.80 ng/mL
- Short-term stability, Test Conc. (nominal Conc. 65.63 ng/mL): 57.16 ng/mL and 57.07 ng/mL and 64.40 ng/mL and 62.26 ng/mL and 63.12 ng/mL
- Short-term stability, Test Conc., AV (nominal Conc. 525.00 ng/mL): 474.02 ng/mL
- Short-term stability, Test Conc. (nominal Conc. 525.00 ng/mL): 478.01 ng/mL and 472.87 ng/mL and 443.05 ng/mL and 442.10 ng/mL and 534.08 ng/mL
- Short-term stability, Test Conc., AV (nominal Conc. 8400.00 ng/mL): 7949.42 ng/mL
- Short-term stability, Test Conc. (nominal Conc. 8400.00 ng/mL): 8294.16 ng/mL and 7882.56 ng/mL and 8019.48 ng/mL and 7925.40 ng/mL and 7625.52 ng/mL
- Long-term stability, Test Conc., AV (nominal Conc. 65.63 ng/mL): 59.99 ng/mL
- Long-term stability, Test Conc. (nominal Conc. 65.63 ng/mL): 54.24 ng/mL and 60.01 ng/mL and 62.03 ng/mL and 66.54 ng/mL and 57.14 ng/mL
- Long-term stability, Test Conc., AV (nominal Conc. 525.00 ng/mL): 500.71 ng/mL
- Long-term stability, Test Conc. (nominal Conc. 525.00 ng/mL): 493.55 ng/mL and 501.01 ng/mL and 547.68 ng/mL and 448.04 ng/mL and 513.29 ng/mL
- Long-term stability, Test Conc., AV (nominal Conc. 8400.00 ng/mL): 7982.86 ng/mL
- Long-term stability, Test Conc. (nominal Conc. 8400.00 ng/mL): 7842.24 ng/mL and 9005.64 ng/mL and 8321.88 ng/mL and 7922.88 ng/mL and 6821.64 ng/mL
- Free-thaw stability (3 free-thaw cycles) Measured Conc. [1]: 8631.3 ± 801.3 ng/mL
- Long-term stability (-80℃ for 15 d) Measured Conc. [1]: 7982.9 ± 795.7 ng/mL
- Short-term stability (25℃ for 12 h) Measured Conc. [1]: 7949.4 ± 241.7 ng/mL
- Free-thaw stability (3 free-thaw cycles) Measured Conc. [2]: 65.3 ± 6.9 ng/mL
- Long-term stability (-80℃ for 15 d) Measured Conc. [2]: 60.0 ± 4.7 ng/mL
- Short-term stability (25℃ for 12 h) Measured Conc. [2]: 60.8 ± 3.5 ng/mL
- Free-thaw stability (3 free-thaw cycles) Measured Conc. [3]: 511.9 ± 40.6 ng/mL
- Long-term stability (-80℃ for 15 d) Measured Conc. [3]: 500.7 ± 36.0 ng/mL
- Short-term stability (25℃ for 12 h) Measured Conc. [3]: 474.0 ± 37.4 ng/mL
